Assay [1] relates to NF-κB signaling pathway. In words: Cell-based dual luciferase NF-κB reporter assay (HEK293 cells, TNF stimulated). Conditions: Homo sapiens, HEK293. The protocol: Dual-luciferase reporter assay was designed to find inhibitors of HOIP affecting NF-κB signaling pathway. The assay was performed in HEK293 cells which were transfected with plasmids coding for Firefly and NanoLuc luciferases. The NanoLuc luciferase plasmid contains NF-κB response element which determines its expression.
The assay was run following standard dual-luciferase protocols. The assay consists of a few steps: • compounds were dispensed at a concentration range: 100-0.005 μM with a final DMSO concentration of 1% of final volume (25 μL); • cells were stimulated after 30 min with 2.5 ng/mL TNF; and • after 6 h Firefly and NanoLuc luciferase activities are determined according to the procedure described by the manufacturer of Nano-Glo Dual-Luciferase Reporter Assay System.
(In a reporter assay the amount or activity of a reporter protein is the signal.)

Assay [2] deals with T1, human E3 ubiquitin-protein ligase RNF31 (HOIP) (Homo sapiens, UniProt Q96EP0).
T1 sequence (Q96EP0 695-1072 limits assumed): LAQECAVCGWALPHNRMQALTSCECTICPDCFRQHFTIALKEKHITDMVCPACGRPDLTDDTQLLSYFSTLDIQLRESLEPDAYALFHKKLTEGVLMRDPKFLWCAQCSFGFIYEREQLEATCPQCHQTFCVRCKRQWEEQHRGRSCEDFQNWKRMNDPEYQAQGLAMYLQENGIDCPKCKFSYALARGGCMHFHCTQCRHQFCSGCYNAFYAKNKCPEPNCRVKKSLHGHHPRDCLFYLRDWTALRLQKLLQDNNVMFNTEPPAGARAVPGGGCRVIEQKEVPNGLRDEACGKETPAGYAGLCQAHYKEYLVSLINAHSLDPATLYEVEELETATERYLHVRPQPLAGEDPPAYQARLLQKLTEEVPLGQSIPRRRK
The experiment in a line: Cell-free HTRF-based HOIP inhibition assay. The assay is classed as biochemical. Summed up: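 HTRF read (ex 337 nm; em 665 and 620 nm) after a 2.5 h, 25° C. ubiquitination step started by adding E2 plus substrates. Before that, E. coli-expressed human HOIP fragment and E1 were incubated 1 h at 25° C. with compound at 100-0.005 μM, 1% DMSO final.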
(In general: In TR-FRET formats the signal depends on donor and acceptor labels being close together.)

Assay [3] relates to bladder carcinoma RT4 cell line. In words: TNF-α-induced cytotoxicity assay (CellTiter-Glo viability). The assay is classed as cell-based. Conditions: Homo sapiens, RT-4, 72 h. In short, it runs like this: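 RT4 bladder carcinoma cells, 1000 per well, stimulated with 1.25 ng/mL TNFα together with compound for 72 h at 37° C., 5% CO2. Viability read by CellTiter-Glo luminescence, proportional to cellular ATP, as a measure of HOIP-dependent cytotoxicity.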
Background: ATP-based viability assays read luminescence as a measure of living cells.

`COCCOC(=O)N1CCc2[nH]c(=O)c(C(=O)NC/C=C/S(=O)(=O)c3ccccc3)cc2C1` [Example 80, 2-Methoxyethyl 3-{[(2E)-3-(benzenesulfonyl)prop-2-en-1-yl]carbamoyl}-2-oxo-1,2,5,6,7,8-hexahydro-1,6-naphthyridine-6-carboxylate]: the values for the IC50 in assay [1], in assay [2] and in assay [3] were ≤ 100000 nM, ≤ 1000 nM and ≤ 10000 nM, respectively.

In the case of `O=C(NC/C=C/S(=O)(=O)c1ccccc1)c1cc2c([nH]c1=O)CCCC2` [Example 7, N-[(2E)-3-(benzenesulfonyl)prop-2-en-1-yl]-2-oxo-1,2,5,6,7,8-hexahydroquinoline-3-carboxamide], the IC50 in assay [1], in assay [2] and in assay [3] was ≤ 1000 nM in each case.

Take `O=C(NC/C=C/S(=O)(=O)c1ccccc1)c1cc2c([nH]c1=O)CCN(C(=O)OCC1CC1(F)F)C2` (stereo not drawn) [Example 74, (2,2-difluorocyclopropyl)methyl 3-{[(2E)-3-(benzenesulfonyl)prop-2-en-1-yl]carbamoyl}-2-oxo-1,2,5,6,7,8-hexahydro-1,6-naphthyridine-6-carboxylate]: the values for the IC50 in assay [1], in assay [2] and in assay [3] were ≤ 1000 nM, ≤ 1000 nM and ≤ 10000 nM, respectively.

As for `O=C(NC/C=C/S(=O)(=O)c1ccc(Cl)cc1Cl)c1cc2c([nH]c1=O)CCCC2` [Example 32, N-[(2E)-3-(2,4-dichlorobenzenesulfonyl)prop-2-en-1-yl]-2-oxo-1,2,5,6,7,8-hexahydroquinoline-3-carboxamide], the results for the half-inhibitory concentration (IC50) in assay [1], in assay [2] and in assay [3] were ≤ 1000 nM, ≤ 100 nM and ≤ 1000 nM, respectively.

Regarding `COCC(C)OC(=O)N1CCc2[nH]c(=O)c(C(=O)NC/C=C/S(=O)(=O)c3ccc(Cl)cc3)cc2C1` (stereo not drawn) [Example 94, 1-methoxypropan-2-yl 3-{[(2E)-3-(4-chlorobenzenesulfonyl)prop-2-en-1-yl]carbamoyl}-2-oxo-1,2,5,6,7,8-hexahydro-1,6-naphthyridine-6-carboxylate], the values for the IC50 in assay [1], in assay [2] and in assay [3] were ≤ 1000 nM, ≤ 100 nM and ≤ 10000 nM, respectively.

In the case of `CC(OC(=O)N1CCc2[nH]c(=O)c(C(=O)NC/C=C/S(=O)(=O)c3ccccc3)cc2C1)c1c(F)cccc1F` (stereo not drawn) [Example 91, 1-(2,6-difluorophenyl)ethyl 3-{[(2E)-3-(benzenesulfonyl)prop-2-en-1-yl]carbamoyl}-2-oxo-1,2,5,6,7,8-hexahydro-1,6-naphthyridine-6-carboxylate], the IC50 in assay [1], in assay [2] and in assay [3] was ≤ 1000 nM in each case.

Turning to `COc1ccc(S(=N)(=O)/C=C/CNC(=O)c2cc3c([nH]c2=O)CCC(OC)C3)cc1F` (stereo not drawn) [Example 169, N-[(2E)-3-[(3-fluoro-4-methoxyphenyl)(imino)oxo-λ^6-sulfanyl]prop-2-en-1-yl]-6-methoxy-2-oxo-1,2,5,6,7,8-hexahydroquinoline-3-carboxamide], the results for the IC50 in assay [1], in assay [2] and in assay [3] were ≤ 10000 nM, ≤ 1000 nM and ≤ 10000 nM, respectively.

As for `O=C(NC/C=C/S(=O)(=O)c1ccc(F)cc1F)c1cc2c([nH]c1=O)CCCCC2` [Example 34, N-[(2E)-3-(2,4-difluorobenzenesulfonyl)prop-2-en-1-yl]-2-oxo-1H,2H,5H,6H,7H,8H,9H-cyclohepta[b]pyridine-3-carboxamide], the IC50 in assay [1], in assay [2] and in assay [3] was ≤ 1000 nM each time.

As to `O=C(NC/C=C/S(=O)(=O)c1ccccc1)c1cc2c([nH]c1=O)CCN(C(=O)OCCc1ccc(Cl)cc1)C2` [Example 122, 2-(4-chlorophenyl)ethyl 3-{[(2E)-3-(benzenesulfonyl)prop-2-en-1-yl]carbamoyl}-2-oxo-1,2,5,6,7,8-hexahydro-1,6-naphthyridine-6-carboxylate], the IC50 in assay [1], in assay [2] and in assay [3] was ≤ 1000 nM throughout.

Regarding `COc1ccc(S(=O)(=O)/C=C/CNC(=O)c2cc3c([nH]c2=O)CCN(C(=O)OC(C)(C)C)C3)cc1F` [Example 26, tert-butyl 3-{[(2E)-3-(3-fluoro-4-methoxybenzenesulfonyl)prop-2-en-1-yl]carbamoyl}-2-oxo-1,2,5,6,7,8-hexahydro-1,6-naphthyridine-6-carboxylate], the IC50 (commonly the concentration needed to halve the response being measured) in assay [1] was ≤ 1000 nM; in assay [2] it was ≤ 100 nM; in assay [3], ≤ 10000 nM.

For the compound `COCC(C)OC(=O)N1CCc2[nH]c(=O)c(C(=O)NC/C=C/S(=O)(=O)c3ccccc3)cc2C1` (stereo not drawn) [Example 75, 1-methoxypropan-2-vi 3-{[(2E)-3-(benzenesulfonyl)prop-2-en-1-yl]carbamoyl}-2-oxo-1,2,5,6,7,8-hexahydro-1,6-naphthyridine-6-carboxylate], the IC50 in assay [1] is ≤ 10000 nM; in assay [2], ≤ 1000 nM; in assay [3], ≤ 10000 nM.

Take `N=S(=O)(/C=C/CNC(=O)c1cc2c([nH]c1=O)CCCC2)c1cccc(Cl)c1` (stereo not drawn) [Example 134, N-[(2E)-3-[(3-chlorophenyl)(imino)oxo-λ^6-sulfanyl]prop-2-en-1-yl]-2-oxo-1,2,5,6,7,8-hexahydroquinoline-3-carboxamide]: the IC50 in assay [1], in assay [2] and in assay [3] was ≤ 1000 nM in each case.

`COc1cccc(S(=N)(=O)/C=C/CNC(=O)c2cc3c([nH]c2=O)CCCC3)c1` (stereo not drawn) [Example 64, N-[(2E)-3-[imino(3-methoxyphenyl)oxo-λ^6-sulfanyl]prop-2-en-1-yl]-2-oxo-1,2,5,6,7,8-hexahydroquinoline-3-carboxamide]: the IC50 in assay [1], in assay [2] and in assay [3] was ≤ 1000 nM throughout.

For `O=C(NC/C=C/S(=O)(=O)c1ccc(F)cc1Cl)c1cc2c([nH]c1=O)CCCC2` [Example 33, N-[(2E)-3-(2-chloro-4-fluorobenzenesulfonyl)prop-2-en-1-yl]-2-oxo-1,2,5,6,7,8-hexahydroquinoline-3-carboxamide], the IC50 in assay [1] was ≤ 1000 nM; in assay [2] it was ≤ 100 nM; in assay [3], ≤ 1000 nM.

For the compound `CC(C)Oc1ccc(S(=N)(=O)/C=C/CNC(=O)c2cc3c([nH]c2=O)CCCC3)cc1` (stereo not drawn) [Example 138, N-[(2E)-3-[imino(oxo)[4-(propan-2-yloxy)phenyl]-λ^6-sulfanyl]prop-2-en-1-yl]-2-oxo-1,2,5,6,7,8-hexahydroquinoline-3-carboxamide], the 50% inhibitory concentration (IC50) in assay [1], in assay [2] and in assay [3] was ≤ 1000 nM each time.

Take `CC(C)(C)OC(=O)N1CCc2[nH]c(=O)c(C(=O)NC/C=C/S(=O)(=O)c3ccc(F)cc3)cc2C1` [Example 25, tert-butyl 3-{[(2E)-3-(4-fluorobenzenesulfonyl)prop-2-en-1-yl]carbamoyl}-2-oxo-1,2,5,6,7,8-hexahydro-1,6-naphthyridine-6-carboxylate]: the values for the IC50 in assay [1], in assay [2] and in assay [3] were ≤ 1000 nM, ≤ 100 nM and ≤ 10000 nM, respectively.

With `O=C(NC/C=C/S(=O)(=O)c1cccs1)c1cc2c([nH]c1=O)CCCC2` [Example 44, 2-oxo-N-[(2E)-3-(thiophene-2-sulfonyl)prop-2-en-1-yl]-1,2,5,6,7,8-hexahydroquinoline-3-carboxamide], the IC50 in assay [1], in assay [2] and in assay [3] was ≤ 1000 nM throughout.

For the origin of these results see patent US20260250250A1, “3-(SULPHONYL OR SULFONIMIDOYL)PROP-2-EN-1-YL]-2-OXO-1,2-DIHYDROPYRIDINE-3-CARBOXAMIDE DERIVATIVES” (Flinder Therapeutics B.V., priority 2022, published 2026).
